Laboratory results from patent publication US11639350B2, “Heteroaryldihydropyrimidine derivatives and methods of treating hepatitis B infections” (Janssen Pharmaceutica NV, priority 2018, dated 2023).
Where two headings read alike, the source gives them in different places.

Experiments:
[1] = test system: HBV; assay: HBV inhibitory activity: HBV DNA in the culture medium of HepG2.2.15 cells by q-PCR; assay type: cell-based; conditions: HepG2.2.15 cells, 6 days of compound treatment, HBV DNA in culture medium by q-PCR, highest concentration 10 μM, read-out: EC50
How it was run: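 HepG2.2.15 cells in 2% FBS medium, 40,000 per well, treated 6 days with compound (medium refreshed once), eight 3-fold dilutions from 10 μM top. HBV DNA extracted from culture medium and quantified by q-PCR; EC50 averaged over repeats. Cytotoxicity run in parallel at 5,000 cells per well, top 100 μM, giving CC50.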

[2] = test system: HepG2.2.15 cells; assay: Cytotoxicity determination in HepG2.2.15 cells (CCK-8); assay type: cell-based; conditions: 6 days of compound treatment, CCK-8, highest concentration 100 μM
How it was run: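 HepG2.2.15 cells seeded at 5,000 cells/well in 2% FBS medium, incubated overnight at 37° C., then treated 6 days with compounds (8 points, 3-fold dilutions, top 100 μM), medium refreshed once midway. CCK-8 added for 2.5 h; A450 read against 630 nm reference; CC50 calculated, averaged over repeats.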

[3] = Hepatitis B virus, HepG2.2.15, 144 h

SMILES	EC50 [1, 3] [nM]	CC50 [2] [nM]	EC50 [1] [nM]
COC(=O)C1=C(C2CCN(S(C)(=O)=O)C2)NC(c2nccs2)=NC1c1ccc(F)cc1Cl (single isomer, unassigned) [Compound 65A, 4-(2-Chloro-4-fluoro-phenyl)-6-(1-methanesulfonyl-pyrrolidin-3-yl)-2-thiazol-2-yl-1,4-dihydro-pyrimidine-5-carboxylic Acid Methyl Ester]	425	69100	–
COC(=O)C1=C(C2CCN(S(C)(=O)=O)C2)NC(c2nccs2)=NC1c1ccc(F)cc1Cl (single isomer, unassigned) [Compound 65C, 4-(2-Chloro-4-fluoro-phenyl)-6-(1-methanesulfonyl-pyrrolidin-3-yl)-2-thiazol-2-yl-1,4-dihydro-pyrimidine-5-carboxylic Acid Methyl Ester]	–	19500	378
COC(=O)C1=C(C2CCC(C(=O)O)C2)NC(c2nccs2)=NC1c1ccc(F)cc1Cl (single isomer, unassigned) [Compound 72F, 3-(6-(2-Chloro-4-fluorophenyl)-5-(methoxycarbonyl)-2-(thiazol-2-yl)-3,6-dihydropyrimidin-4-yl)cyclopentanecarboxylic Acid]	–	30000	58
COC(=O)C1=C(C2CCOC2)NC(c2nccs2)=NC1c1cccc(F)c1Cl (single isomer, unassigned) [Compound 74A, Methyl 4-(2-chloro-3-fluorophenyl)-6-(tetrahydrofuran-3-yl)-2-(thiazol-2-yl)-1,4-dihydropyrimidine-5-carboxylate]	–	33000	88
COC(=O)C1=C(C2CCOC2)NC(c2nccs2)=NC1c1cccc(F)c1Cl (single isomer, unassigned) [Compound 74C, Methyl 4-(2-chloro-3-fluorophenyl)-6-(tetrahydrofuran-3-yl)-2-(thiazol-2-yl)-1,4-dihydropyrimidine-5-carboxylate]	–	86500	249
COC(=O)C1=C(C2CCOC2)NC(c2nccs2)=NC1c1cccc(F)c1Cl (single isomer, unassigned) [Compound 74D, Methyl 4-(2-chloro-3-fluorophenyl)-6-(tetrahydrofuran-3-yl)-2-(thiazol-2-yl)-1,4-dihydropyrimidine-5-carboxylate]	–	84500	303
COC(=O)C1=C(C2CCC(=O)N2)NC(c2nccs2)=NC1c1cccc(F)c1Cl (single isomer, unassigned) [Compound 75A, Methyl 4-(2-chloro-3-fluorophenyl)-6-(5-oxopyrrolidin-2-yl)-2-(thiazol-2-yl)-1,4-dihydropyrimidine-5-carboxylate]	–	32300	213
COC(=O)C1=C(C2CCC(=O)N2)NC(c2nccs2)=NC1c1cccc(F)c1Cl (single isomer, unassigned) [Compound 75D, Methyl 4-(2-chloro-3-fluorophenyl)-6-(5-oxopyrrolidin-2-yl)-2-(thiazol-2-yl)-1,4-dihydropyrimidine-5-carboxylate]	–	10200	45
CCOC(=O)C1=C([C@@H]2C[C@H]2CC(=O)O)NC(c2nccs2)=NC1c1ccc(F)cc1Cl (single isomer, unassigned) [Compound 93, 2-(trans-2-(6-(2-Chloro-4-fluorophenyl)-5-(ethoxycarbonyl)-2-(thiazol-2-yl)-3,6-dihydropyrimidin-4-yl)cyclopropyl)acetic Acid]	–	92500	507
COC(=O)C1=C(C2CCCC(C(=O)O)CC2)NC(c2nccs2)=NC1c1ccc(F)cc1Cl (single isomer, unassigned) [Compound 95C, 4-(6-(2-Chloro-4-fluorophenyl)-5-(methoxycarbonyl)-2-(thiazol-2-yl)-3,6-dihydropyrimidin-4-yl)cycloheptanecarboxylic Acid]	–	33100	117
COC(=O)C1=C(C2CCCC(C(=O)O)CC2)NC(c2nccs2)=NC1c1ccc(F)cc1Cl (single isomer, unassigned) [Compound 95E, 4-(6-(2-Chloro-4-fluorophenyl)-5-(methoxycarbonyl)-2-(thiazol-2-yl)-3,6-dihydropyrimidin-4-yl)cycloheptanecarboxylic Acid]	–	75000	141
COC(=O)C1=C(C2CCN(S(C)(=O)=O)CC2)NC(c2nccs2)=NC1c1ccc(F)cc1Br (single isomer, unassigned) [Compound 120B, Methyl 4-(2-bromo-4-fluorophenyl)-6-(1-(methylsulfonyl)-piperidin-4-yl)-2-(thiazol-2-yl)-1,4-dihydropyrimidine-5-carboxylate]	–	16300	154
COC(=O)C1=C([C@H]2CCC[C@@H](CO)C2)NC(c2nccs2)=NC1c1ccc(F)cc1Cl (single isomer, unassigned) [Compound 173C, Methyl 4-(2-chloro-4-fluorophenyl)-6-((cis)-3-(hydroxymethyl)cyclohexyl)-2-(thiazol-2-yl)-1,4-dihydropyrimidine-5-carboxylate]	–	9900	107
COC(=O)C1=C(C2C[C@@H]3CN(S(C)(=O)=O)C[C@@H]3C2)NC(c2nccs2)=NC1c1ccc(F)cc1Cl (single isomer, unassigned) [Compound 176D, Methyl 4-(2-chloro-4-fluorophenyl)-6-((cis)-2-(methylsulfonyl)-octahydrocyclopenta[c]pyrrol-5-yl)-2-(thiazol-2-yl)-1,4-dihydropyrimidine-5-carboxylate]	700	11000	–
COC(=O)C1=C(C2CCN(S(=O)(=O)C3CCC(C)(C(=O)O)CC3)CC2)NC(c2nccs2)=NC1c1ccc(F)c(F)c1Cl (single isomer, unassigned) [Compound 210A, (trans)-4-((4-(6-(2-chloro-3,4-difluorophenyl)-5-(methoxycarbonyl)-2-(thiazol-2-yl)-3,6-dihydropyrimidin-4-yl)piperidin-1-yl)sulfonyl)-1-methylcyclohexanecarboxylic Acid]	–	6000	24
COC(=O)C1=C(C2CCN(S(=O)(=O)C3CCC(C)(C(=O)O)CC3)CC2)NC(c2nccs2)=NC1c1ccc(F)c(F)c1Cl (single isomer, unassigned) [Compound 210B, (cis)-4-((4-(6-(2-chloro-3,4-difluorophenyl)-5-(methoxycarbonyl)-2-(thiazol-2-yl)-3,6-dihydropyrimidin-4-yl)piperidin-1-yl)sulfonyl)-1-methylcyclohexanecarboxylic Acid]	–	9700	44
COC(=O)C1=C(C2CCN(S(=O)(=O)CC(=O)O)C2)NC(c2nccs2)=NC1c1ccc(F)cc1Cl (single isomer, unassigned) [Compound 214C, 2-((−3-(−6-(2-Chloro-4-fluorophenyl)-5-(methoxycarbonyl)-2-(thiazol-2-yl)-3,6-dihydropyrimidin-4-yl)pyrrolidin-1-yl)sulfonyl)acetic Acid]	–	> 100000	784
COC(=O)C1=C(C2COC(CO)C2)NC(c2nccs2)=NC1c1cccc(F)c1Cl (single isomer, unassigned) [Compound 219A, Methyl 4-(2-chloro-3-fluorophenyl)-6-(5-(hydroxymethyl)-tetrahydrofuran-3-yl)-2-(thiazol-2-yl)-1,4-dihydropyrimidine-5-carboxylate]	–	35300	192
